According to patent US8481542B2, “Pyridazinyl derivatives as smo inhibitors” (Novartis AG, priority 2008, dated 2013):
≈ marks a conversion by molar mass, not a printed value. Like-named read-outs stand apart in the source and are kept apart here.

Tests used:
[1] = tested on: Gli-luciferase activity in TMHh12 cells; assay: Reporter gene assay (RGA) in TMHh12 cells, antagonism of Gli-luciferase activity in presence of Smo agonist; format: cell-based
Method: Activity of the compounds was evaluated using a reporter gene assay (RGA) in TMHh12 cells.

[2] = target: mouse Smoothened receptor (Mus musculus, UniProt P56726); assay: Smo binding assay, displacement of radio-labeled smoothened agonist, filter binding format (mouse); details: read-out: Mouse Smo bdg., IC50
Description: (§1) A Smo binding assay was developed using radio-labeled smoothened agonist for compound competition. Table 10 lists the IC50 for displacement of a small molecule agonist of Smoothened determined in a filter binding format for the mouse and human Smoothened receptor.

[3] = target: human Smoothened receptor (Homo sapiens, UniProt Q99835); assay: Smo binding assay, displacement of radio-labeled smoothened agonist, filter binding format (human); details: read-out: Human Smo bdg., IC50
Description: as §1

[4] = equilibrium solubility at pH 6.8; format: physicochemical; details: aqueous buffer, thermodynamic from solid, examples of the present invention
[5] = read-out: RGA (1 nM Smo agonist) IC50, 1 nM Smo agonist, Table 10, values as ranges
[6] = read-out: RGA (25 nM Smo agonist) IC50, 25 nM Smo agonist, Table 10, values as ranges
[7] = TMHh12, read-out: RGA (1 nM Smo agonist) IC50, 1 nM Smo agonist, examples of the present invention, exact values
[8] = TMHh12, read-out: RGA (25 nM Smo agonist) IC50, 25 nM Smo agonist, examples of the present invention, exact values
[9] = examples of the present invention, exact values

Sequence of mouse Smoothened receptor (P56726 33-793): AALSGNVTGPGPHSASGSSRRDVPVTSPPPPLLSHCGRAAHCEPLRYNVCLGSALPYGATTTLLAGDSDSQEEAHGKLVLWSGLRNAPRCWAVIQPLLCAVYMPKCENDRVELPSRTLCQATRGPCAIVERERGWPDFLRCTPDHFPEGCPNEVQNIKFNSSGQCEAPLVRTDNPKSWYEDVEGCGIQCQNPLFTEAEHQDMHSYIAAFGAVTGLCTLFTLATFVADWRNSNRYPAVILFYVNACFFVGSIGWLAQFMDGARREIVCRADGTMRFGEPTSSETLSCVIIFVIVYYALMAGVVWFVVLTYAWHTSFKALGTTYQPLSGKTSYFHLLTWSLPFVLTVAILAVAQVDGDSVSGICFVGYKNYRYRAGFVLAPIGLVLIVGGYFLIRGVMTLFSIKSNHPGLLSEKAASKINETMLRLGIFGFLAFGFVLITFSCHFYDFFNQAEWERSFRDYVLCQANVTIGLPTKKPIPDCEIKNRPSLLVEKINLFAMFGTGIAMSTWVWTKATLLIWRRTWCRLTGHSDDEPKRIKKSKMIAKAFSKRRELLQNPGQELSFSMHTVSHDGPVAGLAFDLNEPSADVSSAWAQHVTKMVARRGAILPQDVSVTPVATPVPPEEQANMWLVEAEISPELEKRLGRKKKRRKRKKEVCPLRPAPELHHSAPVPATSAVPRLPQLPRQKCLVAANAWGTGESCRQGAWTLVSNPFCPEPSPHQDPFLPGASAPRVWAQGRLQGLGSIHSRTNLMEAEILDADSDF
Sequence of human Smoothened receptor (Q99835 28-787): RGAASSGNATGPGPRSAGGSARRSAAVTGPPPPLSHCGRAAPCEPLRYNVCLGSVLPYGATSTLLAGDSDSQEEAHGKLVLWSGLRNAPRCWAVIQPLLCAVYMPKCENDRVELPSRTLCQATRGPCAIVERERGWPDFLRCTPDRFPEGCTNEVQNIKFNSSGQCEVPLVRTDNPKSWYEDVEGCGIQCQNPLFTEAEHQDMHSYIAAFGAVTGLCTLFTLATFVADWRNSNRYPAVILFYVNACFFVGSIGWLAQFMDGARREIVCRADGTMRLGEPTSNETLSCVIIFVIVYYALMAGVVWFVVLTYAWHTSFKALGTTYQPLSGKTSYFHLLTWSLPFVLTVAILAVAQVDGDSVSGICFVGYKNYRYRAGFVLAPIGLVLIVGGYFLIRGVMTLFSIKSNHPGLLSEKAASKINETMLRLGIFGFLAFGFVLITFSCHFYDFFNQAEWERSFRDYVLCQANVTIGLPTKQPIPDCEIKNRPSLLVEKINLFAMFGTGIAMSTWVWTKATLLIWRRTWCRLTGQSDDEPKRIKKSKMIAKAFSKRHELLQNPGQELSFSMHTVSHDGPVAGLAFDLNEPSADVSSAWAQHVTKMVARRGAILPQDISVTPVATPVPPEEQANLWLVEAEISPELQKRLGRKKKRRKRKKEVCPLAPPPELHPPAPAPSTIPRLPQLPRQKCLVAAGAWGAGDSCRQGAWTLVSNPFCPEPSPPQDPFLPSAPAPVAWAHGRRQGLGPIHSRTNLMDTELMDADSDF

IC50 [1, 5] | IC50 [1, 6] | IC50 ([2]; Table 10, values as ranges) | IC50 ([3]; Table 10, values as ranges) | IC50 [1, 7] | IC50 [1, 8] | IC50 [2, 9] | IC50 [3, 9] | solubility thermodynamic [4] | Molecule
1 to 10 nM | 1 to 25 nM | 1 to 10 nM | 1 to 10 nM |  |  |  |  |  | 4,5-Dimethyl-3-(1-methyl-1H-tetrazol-5-ylmethyl)-6-[4-(5-trifluoromethyl-pyridin-2-yl)-piperazin-1-yl]-pyridazine & 4,5-Dimethyl-3-(2H-methyl-2H-tetrazol-5-ylmethyl)-6-[4-(5-trifluoromethyl-pyridin-2-yl)-piperazin-1-yl]-pyridazine [160/161]
 |  |  |  | 2 nM | 23 nM | 8 nM | 4 nM |  | Cc1c(Oc2ccccc2)nnc(N2CCN(c3cnc(C(C)(C)O)cn3)[C@H](C)C2)c1C [Example 2, 2-[(R)-4-(4,5-Dimethyl-6-phenoxy-pyridazin-3-yl)-2-methyl-3,4,5,6-tetra-hydro-2H-[1,2′]bipyrazinyl-5′-yl]-propan-2-ol]
< 0.1 nM | 0.1 to 1 nM | < 0.1 nM | < 0.1 nM |  |  |  |  |  | COC(=O)c1cnc(N2CCN(c3nnc(-c4ccc(F)c(Cl)c4)c(C)c3C)CC2)nc1C(F)(F)F [Example 20]
 |  |  |  | 2 nM | 25 nM | 8 nM | 5 nM | 425 µM (≈ 191 µg/mL) | Cc1c(C(O)c2ccccc2)nnc(N2CCN(c3cnc(C(C)(C)O)cn3)[C@H](C)C2)c1C (stereo partly shown) [Example 48]
 |  |  |  | 6 nM | 114 nM | 32 nM | 29 nM | > 1000 µM | Cc1c(Cc2ccncc2)nnc(N2CCN(c3cnc(C(C)(C)O)cn3)[C@H](C)C2)c1C [Example 50, 2-[(R)-4-(4,5-Dimethyl-6-pyridin-4-ylmethyl-pyridazin-3-yl)-2-methyl-3,4,5,6-tetrahydro-2H-[1,2′]bipyrazinyl-5′-yl]-propan-2-ol]
 |  |  |  | 7 nM | 83 nM | 30 nM | 22 nM | 619 µM (≈ 268 µg/mL) | Cc1c(Cc2ccccn2)nnc(N2CCN(c3cnc(C(C)(C)O)cn3)[C@H](C)C2)c1C [Example 54, 2-[(R)-4-(4,5-Dimethyl-6-pyridin-2-ylmethyl-pyridazin-3-yl)-2-methyl-3,4,5,6-tetrahydro-2H-[1,2′]bipyrazinyl-5′-yl]-propan-2-ol]
1 to 10 nM | 1 to 25 nM | 1 to 25 nM | 1 to 10 nM |  |  |  |  |  | Cc1c(Cc2ccccc2)nnc(N2CCC(C)(c3nc4cnccc4[nH]3)CC2)c1C [Example 59, 2-[1-(6-Benzyl-4,5-dimethyl-pyridazin-3-yl)-4-methyl-piperidin-4-yl]-1H-imidazo[4,5-c]pyridine]
 |  |  |  | 1 nM | 14 nM | 3 nM | 9 nM | 44 µM (≈ 19 µg/mL) | Cc1c(Cc2ccccc2)nnc(N2CCN(c3cnc(C(C)(C)O)cn3)[C@H](C)C2)c1C [Example 88, 2-[(R)-4-(6-Benzyl-4,5-dimethyl-pyridazin-3-yl)-2-methyl-3,4,5,6-tetrahydro-2H-[1,2′]bipyrazinyl-5′-yl]-propan-2-ol]
 |  |  |  | 2 nM | 60 nM | 15 nM | 11 nM | 11 µM (≈ 4.6 µg/mL) | Cc1c(Cc2ccccc2)nnc(N2CCN(c3cnc(C(C)(C)O)cn3)CC2)c1C [Example 89]
 |  |  |  | 1 nM | 34 nM | 7 nM | 6 nM | 18 µM (≈ 7.79 µg/mL) | Cc1c(Cc2ccccc2)nnc(N2CCN(c3cnc(C(C)(C)O)cn3)[C@@H](C)C2)c1C [Example 90]
 |  |  |  | 5 nM | 57 nM | 8 nM | 8 nM |  | CC[C@@H]1CN(c2nnc(Cc3ccccc3)c(C)c2C)CCN1c1cnc(C(C)(C)O)cn1 [Example 91]
 |  |  |  | 1 nM | 14 nM | 3 nM | 1 nM | 20 µM (≈ 8.89 µg/mL) | C[C@@H]1CN(c2nnc(Cc3ccccc3)c3c2CCC3)CCN1c1cnc(C(C)(C)O)cn1 [Example 93]
 |  |  |  | 8 nM | 110 nM | 9 nM | 8 nM |  | CC(=O)c1cnc(N2CCN(c3nnc(Cc4ccccc4)c(C)c3C)C[C@H]2C)cn1 [Example 95, 1-[(R)-4-(6-Benzyl-4,5-dimethyl-pyridazin-3-yl)-2-methyl-3,4,5,6-tetrahydro-2H-[1,2]bipyrazinyl-5′-yl]-ethanone]
 |  |  |  | 6 nM | 62 nM | 4 nM | 3 nM |  | Cc1c(Cc2ccccc2)nnc(N2CCN(c3ncc(C(C)(C)O)c(C(F)(F)F)n3)[C@H](C)C2)c1C [Example 96]
 |  |  |  | 3 nM | 35 nM | 2 nM | 2 nM |  | Cc1c(Cc2ccc(F)cc2)nnc(N2CCN(c3ncc(C(C)(C)O)c(C(F)(F)F)n3)[C@H](C)C2)c1C [Example 97]
 |  |  |  | 11 nM | 69 nM | 6 nM | 6 nM |  | C[C@@H]1CN(c2nnc(Cc3ccccc3)c3c2CCC3)CCN1c1ncc(C(C)(C)O)c(C(F)(F)F)n1 [Example 98]
 |  |  |  | 5 nM | 72 nM | 3 nM | 2 nM |  | C[C@@H]1CN(c2nnc(Cc3ccc(F)cc3)c3c2CCC3)CCN1c1ncc(C(C)(C)O)c(C(F)(F)F)n1 [Example 99]
 |  |  |  | 5 nM | 70 nM | 9 nM | 14 nM |  | CC(C)(O)c1ccc(N2CCN(c3nnc(Cc4ccc(F)cc4)c4c3CCCC4)CC2)nc1 [Example 104]
 |  |  |  | 3 nM | 35 nM | 6 nM | 7 nM |  | CC(C)(O)c1ccc(N2CCN(c3nnc(Cc4ccc(F)cc4)c4c3CCC4)CC2)nc1 [Example 105]
 |  |  |  | 5 nM | 76 nM | 5 nM | 7 nM |  | Cc1c(Cc2ccc(F)cc2)nnc(N2CCN(c3ccc(C(C)(C)O)cn3)CC2)c1C [Example 106]
 |  |  |  | 2 nM | 23 nM | 3 nM | 3 nM |  | C[C@@H]1CN(c2nnc(Cc3ccccc3)c3c2CCC3)CCN1c1cc(C(F)(F)F)c(C(C)(C)O)cn1 [Example 107]
 |  |  |  | 4 nM | 33 nM |  |  |  | CC(=O)c1cnc(N2CCN(c3nnc(Cc4ccccc4)c4c3CCC4)C[C@H]2C)cc1C(F)(F)F [Example 108]
 |  |  |  | 3 nM | 38 nM | 2 nM | 2 nM |  | C[C@@H]1CN(c2nnc(Cc3ccc(F)cc3)c3c2CCC3)CCN1c1cc(C(F)(F)F)c(C(C)(C)O)cn1 [Example 109]
 |  |  |  | 1 nM | 18 nM | 2 nM | 1 nM |  | CCC(O)(CC)c1cnc(N2CCN(c3nnc(Cc4ccccc4)c(C)c3C)C[C@H]2C)cn1 [Example 111]
 |  |  |  | 5 nM | 83 nM | 19 nM | 24 nM | 270 µM (≈ 121 µg/mL) | Cc1c(Cc2ccccc2)nnc(N2CCN(c3cnc(C(C)(O)CO)cn3)[C@H](C)C2)c1C (stereo partly drawn) [Example 144, 2-[(R)-4-(6-Benzyl-4,5-dimethyl-pyridazin-3-yl)-2-methyl-3,4,5,6-tetrahydro-2H-[1,2]bipyrazinyl-5′-yl]-propane-1,2-diol]
